{"source": "patent US20050129680A1", "about": "“Antimicrobial activity of antibodies” (priority 2001, published 2005)", "molecules": {"B1": {"name": "chick ovalbumin: chick-egg ovalbumin (protein, UniProt P01012 2-386, looked up)", "Ovalbumin": "GSIGAASMEFCFDVFKELKVHHANENIFYCPIAIMSALAMVYLGAKDSTRTQINKVVRFDKLPGFGDSIEAQCGTSVNVHSSLRDILNQITKPNDVYSFSLASRLYAEERYPILPEYLQCVKELYRGGLEPINFQTAADQARELINSWVESQTNGIIRNVLQPSSVDSQTAMVLVNAIVFKGLWEKAFKDEDTQAMPFRVTEQESKPVQMMYQIGLFRVASMASEKMKILELPFASGTMSMLVLLPDEVSGLEQLESIINFEKLTEWTSSNVMEERKIKVYLPRMKMEEKYNLTSVLMAMGITDVFSSSANLSGISSAESLKISQAVHAAHAEINEAGREVVGSAEAGVDAASVSEEFRADHPFLFCIKHIATNAVLFFGRCVSP"}, "B2": {"name": "RNase A: ribonuclease, no Trp residues, several disulfide bonds (protein, UniProt P61823 27-150, looked up)", "Ribonuclease pancreatic": "KETAAAKFERQHMDSSTSAASSSNYCNQMMKSRNLTKDRCKPVNTFVHESLADVQAVCSQKNVACKNGQTNCYQSYSTMSITDCRETGSSKYPNCAYKTTQANKHIIVACEGNPYVPVHFDASV"}}, "key": {"[1]": {"test_system": "horse poly-IgG", "details": "read-out: IC50 of H2O2 on the photo-production of H2O2 by horse poly-IgG; horse IgG 6.7 μM, H2O2 0-450 μM, near-UV", "description": "Such a graph permits determination of the IC50 of H2O2 on the photo-production of H2O2 by horse poly-IgG. A solution of horse IgG (6.7 μM) was incubated with varying concentrations of H2O2 (0-450 μM) and the initial rate of H2O2 formation measured as described in FIG. 8A."}, "[2]": {"experiment": "Decomposition of O3 under aqueous conditions", "type": "physicochemical", "details": "PBS pH 7.4, 22° C.", "description": "The rate of decomposition of O3 under the aqueous conditions employed was measured by the following method. Ozone, produced by a passage of O2 through a Polymetrics ozonizer, was bubbled for 2 min through a phosphate buffered saline (PBS, pH 7.4) solution in a quartz cuvette (1 cm^2) at room temperature. The time-dependent change in optical density was then measured at 260 nm (ε=2,700 M^−[…]) for at least 5 half lives in a Hitachi u.v./vis spectrophotometer equipped with a thermostatted rack at 22° C. See Takeuchi et al., Anal. Chim. Acta. 230, 183 (1990). […] The sensitivity of the assay was limited by spectrophotometer accuracy to ±0.1% (˜1 μM) of the OD at t=0."}, "[3]": {"test_system": "E. coli", "experiment": "Bactericidal assay (CFU recovery), strain not singled out", "type": "cell-based", "details": "40 μM, white light 2.7 mW cm^−2, 1 h, PBS, 4±1° C.", "description": "In a typical experiment, a culture of E. coli (in log phase growth, OD600=0.2-0.3) was repeatedly pelleted (3×3,500 rpm) and resuspended in PBS (pH 7.4). The PBS suspended cells were then added to glass vials and cooled to 4° C. […] Viability was determined by recovery of colony forming units (CFUs) on agar plates. Each experiment was performed at least in duplicate.\nIn a typical experiment, a culture of E. coli (in log phase growth, OD600=0.2-0.3) was repeatedly washed in PBS by pelleting (3×3,500 rpm) the cells and resuspending them in PBS (pH 7.4). The PBS suspended cells were then added to glass vials and cooled to 4° C. […] Viability was determined by recovery of colony forming units (CFUs) on agar plates. Each experiment was performed at least in duplicate."}, "[4]": {"experiment": "Antibody/protein UV irradiation with Amplex Red quantitative assay for hydrogen peroxide", "type": "biochemical", "details": "for reduction of ^1O2 (panel of other proteins): UV irradiation, PBS", "description": "Aliquots (10 μL) were removed at timed intervals throughout the assay. H2O2 concentration was determined by the amplex red method. Each data point is reported as the mean±SEM of at least duplicate measurements: ? polyclonal (poly) immunoglobulin (Ig) G, human; O poly-IgG, horse; ? poly-IgG, sheep; ∇ monoclonal (m) IgG (WD1-6G6), murine; ? poly-IgM, human; ? mIgG (92H2), murine; ¦ β-galactosidase (β-gal); ? chick ovalbumin (OVA); ? a-lactalbumin (a-lact); ? bovine serum albumin (BSA).\nAntibody/Protein Irradiation.\nQuantitative Assay for Hydrogen Peroxide. An aliquot (20 μl) from the protein solution was removed and added into a well of a 96-well microtiter plate (Costar) containing reaction buffer (80 μl). Working solution (100 μl/400 μM Amplex Red reagent 1/2 units/ml horseradish peroxidase) was then added, and the plate was incubated in the dark for 30 min. The fluorescence of the well components was then measured using a CytoFluor Multiwell Plate Reader (Series 4000, PerSeptive Biosystems, Framingham, Mass.; Ex/Em: 530/580 nm). The hydrogen peroxide concentration was determined using a standard curve. All experiments were run in duplicate, and the rate is quoted as the mean of at least two measurements.\nA suspension of crystals of the Fab fragment of 1D4 (2 μl) was diluted with PBS (198 μl, pH 7.4) and vortexed gently. Following centrifugation, the supernatant was removed, and the washing procedure was repeated twice further. The residual crystal suspension was then diluted into PBS, pH 7.4 (100 μl), and added into a well of a quartz ELISA plate. Following UV irradiation for 30 min, Amplex Red working solution (100 μl) was added, and the mixture was viewed on a fluorescence microscope.\nDenaturation. […] The resultant solution was transferred to a glass, screw-cap vial and irradiated with UV light for 30 min. The concentration of H2O2 was determined after 30 min."}, "[5]": {"test_system": "E. coli XL1-blue", "experiment": "Bactericidal assay (CFU recovery)", "type": "cell-based", "details": "catalase 13 mU/mL", "description": "In a typical experiment, a culture of E. coli (in log phase growth, OD600=0.2-0.3) was repeatedly pelleted (3×3,500 rpm) and resuspended in PBS (pH 7.4). The PBS suspended cells were then added to glass vials and cooled to 4° C. Hematoporphyrin IX (40 μM) and antibody (20 μM) were added and the vials were either placed on a light box (visible light, 2.8 mW cm^−2) or in the dark at 4° C. and incubated for 1 h. Viability was determined by recovery of colony forming units (CFUs) on agar plates. Each experiment was performed at least in duplicate.\nIn a typical experiment, a culture of E. coli (in log phase growth, OD600=0.2-0.3) was repeatedly washed in PBS by pelleting (3×3,500 rpm) the cells and resuspending them in PBS (pH 7.4). The PBS suspended cells were then added to glass vials and cooled to 4° C. Hematoporphyrin IX (40 μM) and antibody (20 μM) were added and the vials were either placed on a light box (visible light, 2.8 mW cm^−2) or in the dark at 4° C. and incubated for 1 h. Viability was determined by recovery of colony forming units (CFUs) on agar plates. Each experiment was performed at least in duplicate."}}, "note": "Where “and” joins values, the source holds several entries; their conditions need not be identical. Equal values may be shown once.", "data": [{"molecule": "OO", "note": "[Clone H2O2, hydrogen peroxide]", "values": [{"measurement": "IC50", "setting": "[1]", "result": "~225 µM and 225 µM"}]}, {"molecule": "O=[O+][O-]", "note": "[Clone O3, ozone]", "values": [{"measurement": "half-life (t1/2) under aqueous conditions", "setting": "[2]", "result": 1.1, "unit": "min"}]}, {"molecule": "CC1=C(CCC(=O)O)c2cc3[nH]c(cc4nc(cc5[nH]c(cc1n2)c(C)c5C(C)O)C(C)=C4C(C)O)c(C)c3CCC(=O)O", "note": "(centres unmarked) [hematoporphyrin IX]", "values": [{"measurement": "bactericidal activity of sensitizer alone", "setting": "[3]", "result": "negligible bactericidal activity"}]}, {"molecule": "N[C@@H](Cc1c[nH]c2ccccc12)C(=O)O", "note": "[tryptophan]", "values": [{"measurement": "H2O2 produced during near-UV photo-oxidation", "setting": "[4]; near-UV irradiation, 20 μM", "result": "ca. 0.5 mole equivalents"}]}, {"molecule": "catalase", "values": [{"measurement": "protection against the bactericidal activity of non-specific antibodies", "setting": "[5]", "result": "complete protection"}]}, {"molecule": "β-galactosidase", "values": [{"measurement": "H2O2 generated during near-UV irradiation", "setting": "[4]; near-UV irradiation, 6.7 μM", "result": 5.9, "unit": "mol eq."}]}, {"molecule": "B1", "values": [{"measurement": "reduction of ^1O2 (panel of other proteins)", "setting": "[4]", "result": "one of the most efficient proteins"}]}, {"molecule": "B2", "values": [{"measurement": "reduction of ^1O2 (panel of other proteins)", "setting": "[4]", "result": "do not reduce"}]}]}
